Measured values taken from PubChem BioAssay (NCI).
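Tested at 5 concentrations; 48 h exposure; 96-well plates; endpoints linearly interpolated, else capped at highest concentration. Abbreviation: GI50, concentration required for 50% inhibition of growth. Definition used: TGI = concentration required for complete inhibition of growth.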

Experiments:
Assay in all cases: inhibition of tumour cell growth, NCI panel, 48 h
[1] = test system: COLO 205 colon
[2] = test system: HCC-2998 colon
[3] = test system: HCT-116 colon
[4] = test system: HCT-15 colon
[5] = test system: HOP-92 NSCLC
[6] = test system: NCI-H226 lung
[7] = test system: NCI-H522 lung
[8] = test system: SF-539 CNS
[9] = test system: SK-MEL-5 melanoma
[10] = test system: SW-620 colon

**Q.** `COc1cc2cc(C(=O)Nc3cc(N)c4ccccc4c3CCCl)[nH]c2c(OC)c1OC` was tested. Which GI50 [1] did it give?
**A.** 0.0694 µM

**Q.** What about the TGI [1] of the same compound?
**A.** 0.254 µM

**Q.** And the GI50 [2]?
**A.** 0.00922 µM

**Q.** What about the TGI [2] of the same compound?
**A.** 0.034 µM

**Q.** And the GI50 [3]?
**A.** 0.0177 µM

**Q.** And the TGI [3]?
**A.** 5.83 µM

**Q.** What about the GI50 [4] of the same compound?
**A.** 0.0382 µM

**Q.** And the GI50 [5]?
**A.** 0.167 µM

**Q.** And the TGI [5]?
**A.** 11.8 µM

**Q.** What about the GI50 [6] of the same compound?
**A.** 0.115 µM

**Q.** And the TGI [6]?
**A.** 0.308 µM

**Q.** And the GI50 [7]?
**A.** 0.0153 µM

**Q.** And the TGI [7]?
**A.** 0.271 µM

**Q.** And the GI50 [8]?
**A.** 0.161 µM

**Q.** What about the TGI [8] of the same compound?
**A.** > 50 µM

**Q.** What about the GI50 [9] of the same compound?
**A.** 0.0688 µM

**Q.** And the TGI [9]?
**A.** 0.195 µM

**Q.** What about the GI50 [10] of the same compound?
**A.** 0.016 µM

**Q.** And the TGI [10]?
**A.** > 18.3 µM

**Q.** For `CC(=O)N/C(=C\c1cccc([N+](=O)[O-])c1)c1nc2c3c(ccc2[nH]1)C(=O)c1ccccc1C3=O`, which TGI [1] is on record?
**A.** > 100 µM

**Q.** What about the TGI [2] of the same compound?
**A.** > 100 µM

**Q.** And the TGI [3]?
**A.** > 100 µM

**Q.** What about the TGI [4] of the same compound?
**A.** > 100 µM

**Q.** And the TGI [5]?
**A.** > 100 µM

**Q.** What about the TGI [6] of the same compound?
**A.** > 100 µM

**Q.** And the TGI [7]?
**A.** 99.8 µM

**Q.** And the TGI [8]?
**A.** > 100 µM

**Q.** And the TGI [9]?
**A.** > 100 µM

**Q.** What about the TGI [10] of the same compound?
**A.** > 100 µM

**Q.** For `Cc1cc2cc3c(C)cc(=O)oc3c(C)c2o1`, which TGI [1] is on record?
**A.** > 100 µM

**Q.** And the TGI [2]?
**A.** > 100 µM

**Q.** And the TGI [3]?
**A.** > 100 µM

**Q.** And the TGI [4]?
**A.** > 100 µM

**Q.** And the TGI [5]?
**A.** > 100 µM

**Q.** What about the TGI [6] of the same compound?
**A.** > 100 µM

**Q.** And the TGI [7]?
**A.** > 100 µM

**Q.** What about the TGI [8] of the same compound?
**A.** > 100 µM

**Q.** What about the TGI [9] of the same compound?
**A.** > 100 µM

**Q.** What about the TGI [10] of the same compound?
**A.** > 100 µM

**Q.** For `O=C(C[n+]1ccccc1)N=N/C(C(=O)Nc1c(Cl)c(O)c2ccccc2c1O)=C1/C(=O)Oc2cc(O)ccc2C1=O`, which TGI [1] is on record?
**A.** 10.4 µM

**Q.** What about the TGI [2] of the same compound?
**A.** 12.8 µM

**Q.** And the TGI [3]?
**A.** 12.1 µM

**Q.** What about the TGI [4] of the same compound?
**A.** 7.09 µM

**Q.** And the TGI [5]?
**A.** 48.8 µM

**Q.** What about the TGI [6] of the same compound?
**A.** 25.8 µM

**Q.** And the TGI [7]?
**A.** 7.3 µM

**Q.** And the TGI [8]?
**A.** 16 µM

**Q.** What about the TGI [9] of the same compound?
**A.** 2.26 µM

**Q.** What about the TGI [10] of the same compound?
**A.** 20.6 µM
